For assay [1], the system named is Human MSCs. Put plainly: Chondrogenesis culture: sGAG production (Blyscan). In kind it is cell-based. The method, then:
(§1) Chondrogenesis Culture. Cryopreserved MSCs were thawed and expanded in GM until 70-80% confluent. Cells were trypsininzed and then seeded on 6 mm diameter scaffold disks at 1.76×10^5 cells/cm^2 and cultured for 28 days in GM, chondrogenic induction medium (CCM), or CCM without insulin, according to previously published methods. CCM consisted of DMEM high glucose containing 4 mM L-glutamine (Invitrogen, Grand Island, N.Y., USA), 0.1 μM dexamethasone (Sigma-Aldrich), 0.17 mM ascorbic acid-2-phosphate (Wako Chemicals, Richmond, Va., USA), 1% ITS+(6.25 µg/mL insulin, 6.25 µg/mL transferrin, 6.25 ng/mL selenous acid, 5.35 μg/ml linoleic acid and 1.25 mg of bovine serum albumin) Premix Culture Supplement (Corning, Corning, N.Y., USA), 1× antibiotic-antimycotic, 1 mM sodium pyruvate (Sigma-Aldrich), 0.35 mM proline (Sigma-Aldrich), and 10 ng/mL recombinant human transforming growth factor-beta3 (TGF-β3, ProSpec, Israel). CCM without insulin consisted of CCM where the 1% ITS+Premix Culture Supplement was substituted with 1% stock solution (6.25 μg/ml transferrin and 6.25 ng/ml selenous acid, 5.35 μg/ml lionleic acid (Sigma-Aldrich) and 1.25 mg of bovine serum albumin (Fisher Scientific). Na2WO4 was added to all media leading to final Na2WO4 concentrations of 0, 0.01, 0.1 and 1 mM. Samples were harvested and analyzed for sulfated glycosaminoglycans (sGAG), cell number and gene expression at day 14 and 28 and for collagen type II and immunostaining at day 28.
Production of sGAG and cell number were determined. Samples were digested using papain (Sigma-Aldrich, Mo., USA) buffer overnight at 65 C. ° following manufacturer's protocol. The sGAG assay is used to measure the total sulfated proteoglycan content using Blyscan sGAG Assay Kit (Biocolor, UK). Cell lysate of samples (n=4 per group) and color reagent were combined in transparent 96-well plate and the absorbance at 656 nm was measured using a microplate spectrophotometer (EMax, Molecular Devices, Melville, N.Y., USA). sGAG concentration was determined relative to chondroitin sulfate standard curve. PicoGreen® ds DNA assay (Life Technologies) was used to determine the cell number. MSCs of known cell number were used as standards. Standards were prepared by lysing the cells using papain buffer. The cell lysate of samples and standards (n=4 per group) was mixed with an equal volume of Pico Green reagent. Fluorescence intensity was measured with a microplate reader ((FLX800, Biotek Instruments, Vt., USA)) at 480 nm excitation and 520 nm emission. A standard curve of known cell number was used to determine the sample cell number. GAG production was normalized to cell number.

Another assay deals with aggrecan. Put plainly: Chondrogenesis culture: gene expression by RT-PCR, aggrecan. Type of assay: cell-based, human. Particulars: for aggrecan gene expression vs 0 and 1 mM groups: CCM without insulin. The procedure:
as §1
Gene expression was evaluated using quantitative reverse transcription (RT)-polymerase chain reaction (PCR) analysis. RT-PCR was performed with RNeasy Micro Kit and SYBR Green RT-PCR Kit (Qiagen; Valencia, Calif., USA) using the MX4000 detection system (Stratagene) according to the manufacturer's protocol. Relative gene expression of SOX-9, aggrecan and collagen type II were determined. Samples (n=4 per group) were harvested and digested using Lysis Buffer. RNA was isolated from the samples using RNeasy Micro Kit (Qiagen) including DNA digestion step (RNase Free DNase Set; Qiagen). The RNA quantity and integrity were determined by measuring the absorbance at 260 nm and the absorbance ratio of 260 nm/280 nm, respectively, using Nanodrop™ Spectrophotometer (Thermo Fisher Scientific). Quantitative PCR analysis was performed using QuantiTect SYBR Green supermix including the QuantiTect Primer Assays. The reverse transcription step ran for 30 minutes at 50° C., 15 minutes at 95° C. of PCR activation followed by forty cycle of amplification consisting of 15 s denaturation at 94° C., 30 s of annealing at 55° C., and 30 s of extension at 72° C. A melting curve analysis of the RT-PCR product was included for each reaction. Samples were analyzed in triplicate and the value of each gene was normalized to the reference gene ribosomal protein, large, P0 (RPLP0) for the same sample (ΔCT). Primers were purchased from Qiagen (Hs_ACAN, QT00001365; Hs_SOX9, QT00001498; Hs_COL2A1, QT00049518; and Hs_RPLP0 QT00075012).

Assay [2] deals with Human MSCs. As to the kind of experiment: Chondrogenesis culture: immunostaining, confocal microscopy. In kind it is cell-based. Particulars: day 28. The procedure: as §1
Immunostaining was used to observe cell morphology and collagen type II deposition at day 28. Samples were fixed using 4% paraformaldehyde for 20 minutes. Samples were permealized with 0.1% Triton-X for 15 minutes and then non-specific binding was blocked using 5% donkey serum (Sigma-Aldrich, Mo., USA) for 1 hour. Samples were incubated with mouse antihuman collagen type II antibody (EMD Millipore; Calif., USA) in 4° C. overnight. Samples were then incubated with conjugated northern light 493 secondary antibody (Donkey anti-Mouse IgG, Fisher Scientific, Rockford, Ill.) and rhodamine phalloidin (Life Technologies) for actin filament for 1 h. The nucleus was stained with 4′,6-diamidino-2-phenylindole (DAPI, Fisher Scientific). The images were taken using a confocal fluorescence microscope (Cl-si, Nikon, Japan).

The mark [3] stands for this setting: 1 mM Na2WO4, CCM without insulin, day 28.

Here are results for one molecule from US10772909B2, “System and method for insulin-mimetic of cartilage, bone, or osteochondral repair and piezoelectric composite scaffold” (New Jersey Institute of Technology, priority 2016, dated 2020).

Take `[Na+].[Na+].[O]=[W](=[O])([O-])[O-]` [Na2WO4, sodium tungstate]: in the assay on Human MSCs [1] (0.01 mM Na2WO4, CCM), the “sGAG production, change between days 14 and 28” value is “significant increase in sGAG production”. Moreover, the “sGAG production vs 0 mM group” value in the assay with Human MSCs [1] (0.01 mM Na2WO4, CCM without insulin) was “higher than 0 mM group in CCM without insulin but not significantly”; with Human MSCs [1] (0.1 mM Na2WO4, CCM without insulin) it was “higher than 0 mM group in CCM without insulin but not significantly”. In the assay with Human MSCs [1] (0.01 mM Na2WO4, CCM, day 28, p<0.005), the “sGAG production vs all other groups” value is listed as “higher sGAG production than all other groups”. Also, the “normalized sGAG to cell number vs 0 and 1 mM groups” value in the assay on Human MSCs [1] (0.01 mM Na2WO4, CCM, day 28, p<0.05) is “significantly higher”. Further, the “sGAG production vs GM alone” value with Human MSCs [1] (0.1 mM Na2WO4, GM, day 14) was “significantly higher”. The “normalized sGAG to cell number vs 0.01 mM” value in the assay with Human MSCs [1] (setting [3]) is on record as “significantly lower normalized sGAG to cell number”. The “sGAG vs all other groups” value in the assay with Human MSCs [1] (setting [3]) was “significantly lower”. The “aggrecan gene expression vs 0 and 1 mM groups” value in the assay on aggrecan (0.01 mM Na2WO4, days 14 and 28) is reported as “significantly higher”; in the assay with aggrecan (0.1 mM Na2WO4, days 14 and 28), “significantly higher”. In addition, the “aggrecan gene expression vs 0 mM” value in the assay on aggrecan (0.01 mM Na2WO4, CCM, day 14, p<0.05) is listed as “lower aggrecan expression”. Further, the “aggrecan gene expression vs all groups” value in the assay with aggrecan (0.1 mM Na2WO4, CCM, days 14 and 28) was “significantly higher”. Further, the aggrecan gene expression entry in the assay on aggrecan (1 mM Na2WO4, CCM) was “lowest gene expression”. Also, the “aggrecan gene expression (chondrogenic genes)” value in the assay with aggrecan (GM with Na2WO4) is reported as “no significant upregulation of chondrogenic genes”. For the same molecule, the “collagen type II immunostaining vs 0 mM” value in the assay on Human MSCs [2] (0.01 mM Na2WO4, GM) is listed as “more intense”; in the assay on Human MSCs [2] (0.1 mM Na2WO4, GM), “more intense”; in the assay on Human MSCs [2] (Na2WO4 groups, CCM), “more intense collagen type II staining”. Moreover, the “collagen type II immunostaining” value in the assay with Human MSCs [2] (CCM without insulin groups, except for 1 mM Na2WO4) is “showed collagen type II staining”. For the same molecule, in the assay with Human MSCs [2] (all groups), the “actin filament staining as an indicator of attachment” value was “intense actin filament staining”.
